“Also recorded” adds a separate entry of the source.
System: Hartley guinea pigs (females)
Test: Safety (sensitization) maximization test
Format: in vivo, guinea pig
Conditions: for MR: Mean score (average of reaction scores): erythema score 0-3
Description: Safety (sensitization) was evaluated using a maximization test.
An area of the skin over the scapula measuring 4×6 cm^2 was shaved in Hartley guinea pigs (females) having body weights of 350 to 400 g, and two rows of three intradermal injections per row were made in the order indicated below.
1) 0.05 mL aliquots of Freund's complete adjuvant (hereinafter, to abbreviated as FCA solution) were intradermally injected at two locations on the left and right sides.
2) 0.05 mL aliquots of an olive oil solution containing 10% of a sclareol derivative obtained in the aforementioned producing examples or sclareol were intradermally injected at two locations on the left and right sides.
3) 0.05 mL aliquots of an emulsified solution obtained by adding an equal volume of sterile water to an FCA solution containing 20% sclareol or sclareol derivative obtained in the aforementioned production examples were intradermally injected at two locations on the left and right sides.
The same sites on the animals were shaved one week after these procedures, and vaseline containing 10% sodium lauryl sulfate was rubbed onto the skin to induce mild inflammation. 24 hours after rubbing, 0.2 mL of olive oil solutions containing 10% sclareol derivative sample of the present invention or sclareol were applied to a piece of gauze, which was then affixed to cover the skin for 48 hours. The abdomens of the animals were shaved on the 21st day after intradermal injection, and olive oil solutions containing 5% and 10% of a sclareol derivative sample of the present invention, or an olive oil solution containing 5% of a sclareol sample were affixed to cover the skin for 24 hours.

[1] = challenge concentration 5% in olive oil, After 24 Hours
[2] = challenge concentration 5% in olive oil, After 48 Hours
[3] = challenge concentration 10% in olive oil, After 24 Hours
[4] = challenge concentration 10% in olive oil, After 48 Hours

Row | Compound | PR: Sensitization rate (Number of positive animals/Number of animals used) [1] | MR: Mean score (average of reaction scores) [1] | PR: Sensitization rate (Number of positive animals/Number of animals used) [2] | MR: Mean score (average of reaction scores) [2] | PR: Sensitization rate (Number of positive animals/Number of animals used) [3] | MR: Mean score (average of reaction scores) [3] | PR: Sensitization rate (Number of positive animals/Number of animals used) [4] | MR: Mean score (average of reaction scores) [4] | Sensitization (result in words) (maximization test, guinea pigs)
1 | C=C[C@@](C)(CC[C@@H]1[C@@]2(C)CCCC(C)(C)[C@@H]2CC[C@@]1(C)OC(C)=O)OC(C)=O [Diacetylated sclareol, diacetylated sclareol] | 0, (0) | 0, (0) | 0, (0) | 0, (0) | 0, (0) | 0, (0) | 0, (0) | 0, (0) | 
2 | CC[C@](C)(O)CCC1[C@@]2(C)CCCC(C)(C)C2CC[C@@]1(C)O (some centres unmarked) [Hydrogenated sclareol, hydrogenated sclareol] | 0, (0) | 0, (0) | 0, (0) | 0, (0) | 0, (0) | 0, (0) | 0, (0) | 0, (0) | 
3 | C=C[C@@](C)(O)CCC1[C@@]2(C)CCCC(C)(C)C2CC[C@@]1(C)O (some centres unmarked) [Sclareol, sclareol, reference compound] | 4/10 | 0.4 | 4/10 | 0.4 |  |  |  |  | has skin sensitizing properties; also recorded: sensitization being confirmed
4 | monoacetylated sclareol | 0, (0) | 0, (0) | 0, (0) | 0, (0) | 0, (0) | 0, (0) | 0, (0) | 0, (0) | 
